In patent US20050053575A1, “Antigenic product displaying multiple copies of an epitope of a deposit-forming polypeptide involved in plaque-forming diseases and methods of using same” (Ramot At Tel Aviv University Ltd, priority 2001, published 2005):
No end group written: not given here.

Legend:
[1] = tested on: serum antibody raised against f88-EFRH; assay: Competitive inhibition by peptides within βAP of serum antibody raised against f88-EFRH (ELISA); type: binding; conditions: Nd = IC50 which cannot be detected by ELISA, read-out: Competitive inhibition of MICE SERUM antibody (IC50)
Excerpt: The antibodies resulting from EFRH (SEQ ID NO:5) phage immunization are similar regarding their immunological properties to antibodies raised by direct injection with whole β-amyloid (Table 1). […] The high immunogenicity of filamentous phages enables the raising of antibodies against self-antigens.

[2] = tested on: amyloid anti-aggregating antibody; conditions: Frenkel et al. 1998; ELISA; Nd = IC50 which cannot be detected by ELISA; read-out: Competitive inhibition of anti-aggregating antibody (IC50); cited from earlier work
[3] = tested on: β-amyloid peptide 1-16 (EFRH-epitope); assay: Immunization of Balb/C mice; serum Ig titers by ELISA against the EFRH-epitope (β-amyloid peptide 1-16); type: in vivo; conditions: i.p., filamentous phage as adjuvant, five injections; FIG. 10
Protocol: Four mice (named A, B, C, D) were immunized at two week intervals with 100 μg of MAP-[…] (SEQ ID NO:1)+adjuvant (either Complete Freund's or Incomplete Freund's adjuvant) by intraperitoneal injection, and two mice were immunized with H2O+adjuvant as a negative control. All mice were 8 week old female mice.
In experiments of antibody binding to β-amyloid peptide 1-16, 100 ng/well biotinylated β-amyloid peptides 1-16 were bound to streptavidin-coated microtiter plates for ½ h at room temperature. ELISA plates were previously coated with streptavidin for 16 h at 4° C. after washing, bound antibodies to β-peptide were detected by incubation with horseradish peroxidase-conjugated antibodies, as previously described in Frenkel et al. (1999). The Ig type was measured with rabit anti-mouse IgG and anti-mouse IgM labeled with horseradish peroxidase.
Two female mice 8 weeks old (named A and B) were immunized at approximately two week intervals with 200 μg of MAP-(EFRH)2+filamentous phage as adjuvant by intraperitoneal injection.
Two female mice 8 weeks old (named G and H) were immunized at approximately two week intervals with the streptavidin and biotinylated MAP-[…] (SEQ ID NO:1) complex (100 μg of MAP-[…] (SEQ ID NO:1) per mouse) by intraperitoneal injection without adjuvant.

| Substance | IC50 [1] | IC50 [2] | Immune response (serum IgG titers) [3] |
| --- | --- | --- | --- |
| DAEFRHD [peptide, residues 1-7 of AβP] | 5 µM | 0.9 µM |  |
| FRH: peptide, residues 4-6 of AβP (Amyloid-beta protein 40; UniProt P05067 675-677, looked up, fragment) | ~1000 µM | 3000 µM |  |
| MAP-(EFRH)2: octavalent MAP carrying TyrGluPheArgHisTyrGluPheArgHis (SEQ ID NO:4), two EFRH epitopes per peptide (YEFRHYEFRH; also: octavalent lysine-core MAP) |  |  | strong immune response |
| βAP(1-40): full length β-amyloid peptide (1-40) | 3 µM | 0.8 µM |  |

The next lines start with results.

| IC50 [1] | Substance | IC50 [2] | Immune response (serum IgG titers) [3] |
| --- | --- | --- | --- |
| 3 µM | DAEFRH [peptide, residues 1-6 of AβP] | 0.8 µM |  |
| 5 µM | DAEFRHDSG | 1 µM |  |
